From PMC12040169 (PLOS Biology, 2025)

Assay: in vitro
Conditions: human, hela cells, % viability

O=C(c1ccc(S(=O)(=O)N2CCCCC2)cc1)N1CCN(CCN2C(=O)c3cccc4cccc(c34)C2=O)CC1 [CBK262536]
viability at 28.5 h, 10 µM: 79.3%

CCOC(=O)c1c(NC(=O)c2nn3c(C(F)(F)F)cc(-c4cccs4)nc3c2Cl)sc2c1CCCC2 [CBK262539]
viability at 28.5 h, 10 µM: 95.1%

O=S(=O)(NCC(O)Cn1c2ccc(Cl)cc2c2cc(Cl)ccc21)c1ccccc1 (centres unmarked) [CBK262542]
viability at 28.5 h, 10 µM: 88.6%

O=[N+]([O-])c1ccc(NCCCNS(=O)(=O)c2ccc(Cl)cc2)c(Cl)c1 [CBK262543]
viability at 28.5 h, 10 µM: 90.6%

OC(Cn1c(Cc2ccccc2)nc2ccccc21)Cn1c2ccc(Cl)cc2c2cc(Cl)ccc21 (centres unmarked) [CBK262546]
viability at 28.5 h, 10 µM: 89.4%

CCOC(=O)C1=c2s/c(=C\c3cccnc3)c(=O)n2C(N)=C(C#N)C1c1cccnc1 (centres unmarked) [CBK262549]
viability at 28.5 h, 10 µM: 107%

O=C(O)CCn1c2ccc(Br)cc2c2cc(Br)ccc21 [CBK262551]
viability at 28.5 h, 10 µM: 83.9%

CCOC(=O)c1c(NC(=O)c2cc3ccccc3o2)sc2c1CCCC2 [CBK262552]
viability at 28.5 h, 10 µM: 84%

O=C(NCCCN1CCOCC1)c1nn2c(C(F)(F)F)cc(-c3cccs3)nc2c1Cl [CBK262553]
viability at 28.5 h, 10 µM: 82%

O=C(Nc1cc(Oc2cccnc2)cc([N+](=O)[O-])c1)c1cc2nc(-c3ccccc3)cc(-c3ccccc3)n2n1 [CBK262554]
viability at 28.5 h, 10 µM: 87.3%

O=C(O)CCSc1nc2ccccc2n1CCOc1ccccc1 [CBK262555]
viability at 28.5 h, 10 µM: 95.9%

O=C(c1sc2ccccc2c1Cl)N1CCN(CCN2C(=O)c3cccc4cccc(c34)C2=O)CC1 [CBK262557]
viability at 28.5 h, 10 µM: 99%

Cc1c(Br)c(C(F)(F)F)nn1CC(=O)Nc1ccc(Oc2cc([N+](=O)[O-])cc([N+](=O)[O-])c2)cc1 [CBK262558]
viability at 28.5 h, 10 µM: 97.5%

CC1(C)Cc2c(ccc3ccccc23)C(NCC(=O)O)=N1 [CBK262559]
viability at 28.5 h, 10 µM: 97.6%

Cc1ccc(OCCn2c(SCCC(=O)O)nc3ccccc32)cc1 [CBK262561]
viability at 28.5 h, 10 µM: 84.7%

N#CC1=C(N)n2c(s/c(=C\c3ccncc3)c2=O)=C(C#N)C1c1ccncc1 (centres unmarked) [CBK262563]
viability at 28.5 h, 10 µM: 96%

CCN=C(S)NNC(=O)CCn1c2ccccc2c2ccccc21 [CBK262564]
viability at 28.5 h, 10 µM: 93.8%

Cc1ccccc1NC(=O)CC1c2ccccc2CC(C)(C)N1C (centres unmarked) [CBK262567]
viability at 28.5 h, 10 µM: 87.4%

CC1(C)Cc2c(ccc3ccccc23)C(NC(Cc2c[nH]c3ccccc23)C(=O)O)=N1 (centres unmarked) [CBK262569]
viability at 28.5 h, 10 µM: 89.4%

O=c1/c(=C/c2ccc(N3CCOCC3)cc2)sc2nc3cc(Br)cnc3n12 [CBK262574]
viability at 28.5 h, 10 µM: 86.9%

CC(NC1=NC(C)(C)Cc2ccccc21)C(=O)O (centres unmarked) [CBK262575]
viability at 28.5 h, 10 µM: 89%

CC1=C(C(=O)OCc2ccccc2)C2(C(=O)Nc3ccccc32)C(C(=O)OCc2ccccc2)=C(N)O1 (centres unmarked) [CBK262576]
viability at 28.5 h, 10 µM: 89.6%

O=C(O)CCCN1C(=O)/C(=C/c2c[nH]c3ccccc23)SC1=S [CBK262580]
viability at 28.5 h, 10 µM: 119%

O=C(O)c1nn2c(C(F)(F)F)cc(-c3cccs3)nc2c1Cl [CBK262581]
viability at 28.5 h, 10 µM: 95.4%

COc1cc(/C=N/Nc2nc(Nc3ccccc3)nc(Nc3ccccc3)n2)ccc1O [CBK262584]
viability at 28.5 h, 10 µM: 84.9%

CCCN1CCc2c(sc3nc(SCC(=O)c4ccccc4)n(-c4ccccc4)c(=O)c23)C1 [CBK262587]
viability at 28.5 h, 10 µM: 109%

CCCOc1ccc(Cc2nnn[nH]2)cc1 [CBK262590]
viability at 28.5 h, 10 µM: 83.9%

COc1ccc(C(=O)NNC(=O)c2cccc(O)c2)cc1 [CBK262594]
viability at 28.5 h, 10 µM: 118%

CCCN1CCC(=NNC(=O)c2c[nH]c3ccccc23)CC1 [CBK262597]
viability at 28.5 h, 10 µM: 95.3%

COC(=O)c1cn(C(=O)COc2ccc(Cl)cc2)c2ccccc12 [CBK262598]
viability at 28.5 h, 10 µM: 87%

NC(=O)c1ccccc1NC(=O)COc1ccccc1 [CBK262599]
viability at 28.5 h, 10 µM: 85.1%

O=C(Nc1ccc(O)cc1)c1ccc(N2C(=O)c3cccc([N+](=O)[O-])c3C2=O)cc1 [CBK262600]
viability at 28.5 h, 10 µM: 89.8%

O=C(O)CCC(=O)Nc1ccc(Br)cc1C(=O)c1ccc(Cl)cc1 [CBK262601]
viability at 28.5 h, 10 µM: 86.7%

O=C(NCCCN1CCOCC1)c1ccccc1Br [CBK262602C]
viability at 28.5 h, 10 µM: 106%

COC(=O)c1c(NC(=O)C(Sc2ccccc2)c2ccccc2)sc2c1CCC(C(C)(C)C)C2 (centres unmarked) [CBK262603]
viability at 28.5 h, 10 µM: 105%

COC(=O)CNC(c1cc(Br)ccc1N)c1ccccc1Cl (centres unmarked) [CBK262605]
viability at 28.5 h, 10 µM: 89%

COc1cc(C(=O)NC(C)C(=O)NN)cc(OC)c1OC (centres unmarked) [CBK262609]
viability at 28.5 h, 10 µM: 106%

COc1ccccc1OCC(=O)NNC(=O)c1cnccn1 [CBK262617]
viability at 28.5 h, 10 µM: 109%

C/C(CC(=O)Nc1ccc(C)cc1)=N\NC(=O)c1cccc(O)c1 [CBK262618]
viability at 28.5 h, 10 µM: 104%

COc1ccc(OCC(=O)NNC(=O)c2cnccn2)cc1 [CBK262619]
viability at 28.5 h, 10 µM: 98.1%

CC(=O)C1=C(C)NC(SCC(=O)c2ccc(C)cc2)=C(C#N)C1c1ccco1 (centres unmarked) [CBK262623]
viability at 28.5 h, 10 µM: 109%

CC(=O)C1=C(C)NC(SCC(=O)c2ccc(F)cc2)=C(C#N)C1c1sccc1C (centres unmarked) [CBK262624]
viability at 28.5 h, 10 µM: 95.6%

CC(C)N1CCC(=NNC(=O)c2cc(O)c(O)c(O)c2)CC1 [CBK262626]
viability at 28.5 h, 10 µM: 117%

Cc1cc(NS(=O)(=O)c2ccc(NC(=O)c3cc(-c4ccc(C)o4)nc4ccccc34)cc2)nc(C)n1 [CBK262628]
viability at 28.5 h, 10 µM: 93.9%

CCC1CCc2c(sc(NC(=O)c3cc(-c4ccc(C)cc4C)nc4ccccc34)c2C(=O)OC)C1 (centres unmarked) [CBK262629]
viability at 28.5 h, 10 µM: 89.2%

COc1cccc(-c2cc(C(=O)NCCCN3CCOCC3)c3ccccc3n2)c1 [CBK262630]
viability at 28.5 h, 10 µM: 91.7%

NC(=O)c1c(NC(=O)/C=C/c2c(F)cccc2Cl)sc2c1CCCCCC2 [CBK262631]
viability at 28.5 h, 10 µM: 98.2%

O=C(c1cc(-c2cccc(Br)c2)nc2ccccc12)N1CCN(C/C=C/c2ccccc2)CC1 [CBK262633]
viability at 28.5 h, 10 µM: 100%

Cc1c(-c2ccc(Cl)cc2Cl)nc2ccccc2c1C(=O)NCCCc1ccccc1 [CBK262635]
viability at 28.5 h, 10 µM: 89.4%

COC(=O)c1c(NC(=O)c2ccncc2)sc2c1CCC2 [CBK262637]
viability at 28.5 h, 10 µM: 88.1%

O=C(c1ccc2c(c1)OCO2)N1CCN(C/C=C/c2ccccc2)CC1 [CBK262639]
viability at 28.5 h, 10 µM: 105%

COc1cccc(-c2cc(C(=O)Nc3nnn[nH]3)c3ccccc3n2)c1 [CBK262640]
viability at 28.5 h, 10 µM: 98.6%

O=C(O)CC(NS(=O)(=O)c1cccc([N+](=O)[O-])c1)c1ccccc1 (centres unmarked) [CBK262641]
viability at 28.5 h, 10 µM: 96.4%

Cc1cc(C)cc(NC(=O)C2C3C=CC(O3)C2C(=O)O)c1 (centres unmarked) [CBK262642]
viability at 28.5 h, 10 µM: 95.3%

COC(=O)c1c(NC(=O)c2c(C)c(-c3ccc(Cl)cc3Cl)nc3ccccc23)sc2c1CCC(C)C2 (centres unmarked) [CBK262644]
viability at 28.5 h, 10 µM: 82.9%

CCOC(=O)c1c(NC(=O)CCC(=O)O)sc2c1CCCCC2 [CBK262648]
viability at 28.5 h, 10 µM: 100%

CCC1CCc2c(sc(NC(=O)c3cnccn3)c2C(N)=O)C1 (centres unmarked) [CBK262649]
viability at 28.5 h, 10 µM: 105%

COc1ccc(/C=C/C(=O)Nc2cc(S(N)(=O)=O)ccc2C)cc1 [CBK262651]
viability at 28.5 h, 10 µM: 102%

CCOC(=O)c1c(NC(=O)c2cc(-c3ccc(Cl)s3)nc3ccccc23)sc(C)c1CC [CBK262657]
viability at 28.5 h, 10 µM: 107%

O=c1c2c(nc(SCCc3ccccc3)n1CCc1ccccc1)-c1ccccc1CC21CCCCC1 [CBK262661]
viability at 28.5 h, 10 µM: 86.8%

CC12CN3CC(C)(CN(C1)C3c1ccc(O)cc1)C2O (centres unmarked) [CBK262663]
viability at 28.5 h, 10 µM: 107%

Cc1cc(NN(Cc2ccccc2)Cc2ccccc2)n2c(nc3ccccc32)c1C#N [CBK262666]
viability at 28.5 h, 10 µM: 96.9%

O=C1c2ccc(OCCOc3ccc4c(c3)C(=O)N(c3ccc(O)cc3)C4=O)cc2C(=O)N1c1ccc(O)cc1 [CBK262668]
viability at 28.5 h, 10 µM: 91.3%

CC1=NN(c2ccc([N+](=O)[O-])cc2)C(=O)/C1=C/NCc1ccc(S(N)(=O)=O)cc1 [CBK262670]
viability at 28.5 h, 10 µM: 111%

CC(NCCCN(C)C)=C1C(=O)c2ccccc2C1=O [CBK262674]
viability at 28.5 h, 10 µM: 81.6%

CC(Nc1cccc2ccccc12)C(=O)N/N=C/c1ccc([N+](=O)[O-])cc1 (centres unmarked) [CBK262676]
viability at 28.5 h, 10 µM: 84.2%

COc1cc(Nc2cccc3c2C(=O)c2ccccc2C3=O)c(OC)cc1C=O [CBK262677]
viability at 28.5 h, 10 µM: 109%

CC(Nc1cccc2ccccc12)C(=O)N/N=C/c1c(O)ccc2ccccc12 (centres unmarked) [CBK262678]
viability at 28.5 h, 10 µM: 97.5%

CCOc1ccc2c(c1)-c1c(ssc1=S)C(C)(C)N2C(=O)CSc1nnc[nH]1 [CBK262680]
viability at 28.5 h, 10 µM: 98.6%

Cc1ccc2c(c1)-c1c(ssc1=S)C(C)(C)N2C(=O)COc1nc2ccccc2s1 [CBK262682]
viability at 28.5 h, 10 µM: 88%

CCOC(=O)/C(C#N)=C(\O)c1ccc(N2C(=O)c3ccc(C(=O)O)cc3C2=O)cc1 [CBK262683]
viability at 28.5 h, 10 µM: 91.8%

CCOc1ccc(-c2c3c(c(-c4ccccc4)n2-c2ccc(N)cc2)C(=O)c2ccccc2C3=O)cc1 [CBK262685]
viability at 28.5 h, 10 µM: 40%

COc1cc(C2Nc3ccccc3-c3nc(SC)nnc3O2)ccc1OCC(=O)O (centres unmarked) [CBK262687]
viability at 28.5 h, 10 µM: 94.3%

CC(NCCN1CCOCC1)=C1C(=O)c2ccccc2C1=O [CBK262691]
viability at 28.5 h, 10 µM: 96.1%

CC(NCc1ccc(S(N)(=O)=O)cc1)=C1C(=O)c2ccccc2C1=O [CBK262692]
viability at 28.5 h, 10 µM: 87%

COc1cccc(NC(=O)C2CN(S(=O)(=O)c3ccccc3)CCN2S(=O)(=O)c2ccccc2)c1 (centres unmarked) [CBK262694]
viability at 28.5 h, 10 µM: 85.9%

Nc1ccc(-n2c(-c3ccccc3)c3c(c2-c2ccc(Cl)cc2)C(=O)c2ccccc2C3=O)cc1 [CBK262695]
viability at 28.5 h, 10 µM: 87.3%

Cc1ccc2c(c1)N(C(=O)COc1nc3ccccc3s1)C(C)(C)c1ssc(=S)c1-2 [CBK262696]
viability at 28.5 h, 10 µM: 97.7%

O=C(O)Cn1cc(I)c(=O)[nH]c1=O [CBK262698]
viability at 28.5 h, 10 µM: 98.6%

O=C(CSc1nc2ccccc2c(=O)n1Cc1ccccc1)c1ccc(Br)cc1 [CBK262700]
viability at 28.5 h, 10 µM: 93.4%

Nc1ncnc(NCCc2ccccc2)n1 [CBK262701]
viability at 28.5 h, 10 µM: 85%

NC(=O)C[N+]1(CC#CC(O)(c2ccccc2)c2ccccc2)CCCC1 [CBK262703I]
viability at 28.5 h, 10 µM: 95.3%

CNCCOCC(O)CSc1ccccc1 (centres unmarked) [CBK262704]
viability at 28.5 h, 10 µM: 100%
